Source: PubChem BioAssay AID2060897 (Molecular Pharmacology Branch, DTP, NCI, 2025)

System: 966289-007-R4-J1-PDC complex spheroid viability
Assay: Anticancer human tumor 966289-007-R4-J1-PDC patient-derived pancreatic adenocarcinoma cell line growth inhibition [RAS]
Settings: for IC50: curve of first compound; for viability, T/C: stronger effect = lower value
Summary of the method: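 Multi-cell-type spheroids: tumor cells plus HUVEC endothelial cells and mesenchymal stem cells. RAS-pathway inhibitors were combined with targeted agents, each dosed in half-log steps down from clinical Cmax, or from 10 microM when Cmax was unknown.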
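Further: spheroids exposed to agents for one week before readout.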
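Wherever viability, T/C is given: percent viability relative to DMSO vehicle control wells as 100%.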

`CC1(C)CCC(Nc2ncc(C(F)(F)F)c(-c3c[nH]c4c(P(C)(C)=O)c(C#N)ccc34)n2)CN1` (stereo unspecified) + CCn1c(-c2cccnc2C(C)OC)c2c3cc(ccc31)N1CCOC(CC(NC(=O)C(C(C)C)N(C)C(=O)C3(F)CCN(C(=O)C#CC(C)(C)N(C)C)CC3)C(=O)N3CCCC(N3)C(=O)OCC(C)(C)C2)C1 gave an IC50 (second compound 0.000949 µM) of 4.98 nM, an IC50 (second compound 0.003 µM) of 5.32 nM and an IC50 (second compound 0.00949 µM) of 4.93 nM. The IC50 (second compound 0.03 µM) was 3.82 nM, the IC50 (second compound 0.0949 µM) was 4.06 nM and the IC50 (second compound 0.3 µM) was 2.89 nM. It also gave a viability, T/C (second compound 0.000949 µM, first compound 0.000949 µM) of 136%, a viability, T/C (second compound 0.000949 µM, first compound 0.003 µM) of 75.5% and a viability, T/C (second compound 0.000949 µM, first compound 0.00949 µM) of 17.6%. It also gave a viability, T/C (second compound 0.000949 µM, first compound 0.03 µM) of 7.64%, a viability, T/C (second compound 0.000949 µM, first compound 0.0949 µM) of 5.45% and a viability, T/C (second compound 0.000949 µM, first compound 0.3 µM) of 7.38%. The viability, T/C (second compound 0.003 µM, first compound 0.000949 µM) was 90.5%, the viability, T/C (second compound 0.003 µM, first compound 0.003 µM) was 77.4% and the viability, T/C (second compound 0.003 µM, first compound 0.00949 µM) was 22.3%. The viability, T/C (second compound 0.003 µM, first compound 0.03 µM) was 7.6%, the viability, T/C (second compound 0.003 µM, first compound 0.0949 µM) was 5.79% and the viability, T/C (second compound 0.003 µM, first compound 0.3 µM) was 7.11%. The viability, T/C (second compound 0.00949 µM, first compound 0.000949 µM) was 83.3%, the viability, T/C (second compound 0.00949 µM, first compound 0.003 µM) was 75.1% and the viability, T/C (second compound 0.00949 µM, first compound 0.00949 µM) was 16.9%. The viability, T/C (second compound 0.00949 µM, first compound 0.03 µM) was 8.28%, the viability, T/C (second compound 0.00949 µM, first compound 0.0949 µM) was 5.11% and the viability, T/C (second compound 0.00949 µM, first compound 0.3 µM) was 5.09%. It also gave a viability, T/C (second compound 0.03 µM, first compound 0.000949 µM) of 72%, a viability, T/C (second compound 0.03 µM, first compound 0.003 µM) of 59.6% and a viability, T/C (second compound 0.03 µM, first compound 0.00949 µM) of 13.6%. It also gave a viability, T/C (second compound 0.03 µM, first compound 0.03 µM) of 5.23%, a viability, T/C (second compound 0.03 µM, first compound 0.0949 µM) of 4.63% and a viability, T/C (second compound 0.03 µM, first compound 0.3 µM) of 3.91%. For the same molecule, the viability, T/C (second compound 0.0949 µM, first compound 0.000949 µM) was 71.8%, the viability, T/C (second compound 0.0949 µM, first compound 0.003 µM) was 65.2% and the viability, T/C (second compound 0.0949 µM, first compound 0.00949 µM) was 7.56%. The viability, T/C (second compound 0.0949 µM, first compound 0.03 µM) was 3.47%, the viability, T/C (second compound 0.0949 µM, first compound 0.0949 µM) was 3.17% and the viability, T/C (second compound 0.0949 µM, first compound 0.3 µM) was 3.37%. It also gave a viability, T/C (second compound 0.3 µM, first compound 0.000949 µM) of 62.6%, a viability, T/C (second compound 0.3 µM, first compound 0.003 µM) of 49.6% and a viability, T/C (second compound 0.3 µM, first compound 0.00949 µM) of 6.28%. For the same molecule, the viability, T/C (second compound 0.3 µM, first compound 0.03 µM) was 2.91%, the viability, T/C (second compound 0.3 µM, first compound 0.0949 µM) was 2.13% and the viability, T/C (second compound 0.3 µM, first compound 0.3 µM) was 1.99%.
`CCc1c2c(nc3ccc(O)cc13)-c1cc3c(c(=O)n1C2)COC(=O)[C@]3(O)CC` + C#Cc1c(F)ccc2cc(O)cc(-c3ncc4c(N5CC6CCC(C5)N6)nc(OCC56CCCN5CC(F)C6)nc4c3F)c12 was tested, and the IC50 (second compound 0.0316 µM) was 1.59 nM, the IC50 (second compound 0.1 µM) was 1.5 nM and the IC50 (second compound 0.316 µM) was 1.43 nM. For the same molecule, the IC50 (second compound 1 µM) was 1.44 nM, the IC50 (second compound 3.16 µM) was 1.51 nM and the IC50 (second compound 10 µM) was 1.4 nM. It also gave a viability, T/C (second compound 0.0316 µM, first compound 0.000949 µM) of 88.6%, a viability, T/C (second compound 0.0316 µM, first compound 0.003 µM) of 2.5% and a viability, T/C (second compound 0.0316 µM, first compound 0.00949 µM) of 1.27%. It also gave a viability, T/C (second compound 0.0316 µM, first compound 0.03 µM) of 0.94%, a viability, T/C (second compound 0.0316 µM, first compound 0.0949 µM) of 1.06% and a viability, T/C (second compound 0.0316 µM, first compound 0.3 µM) of 1.14%. It also gave a viability, T/C (second compound 0.1 µM, first compound 0.000949 µM) of 81.8%, a viability, T/C (second compound 0.1 µM, first compound 0.003 µM) of 2.09% and a viability, T/C (second compound 0.1 µM, first compound 0.00949 µM) of 0.95%. It also gave a viability, T/C (second compound 0.1 µM, first compound 0.03 µM) of 1.18%, a viability, T/C (second compound 0.1 µM, first compound 0.0949 µM) of 0.87% and a viability, T/C (second compound 0.1 µM, first compound 0.3 µM) of 1.15%. The viability, T/C (second compound 0.316 µM, first compound 0.000949 µM) was 76.5%, the viability, T/C (second compound 0.316 µM, first compound 0.003 µM) was 2.19% and the viability, T/C (second compound 0.316 µM, first compound 0.00949 µM) was 1.22%. The viability, T/C (second compound 0.316 µM, first compound 0.03 µM) was 1.04%, the viability, T/C (second compound 0.316 µM, first compound 0.0949 µM) was 0.89% and the viability, T/C (second compound 0.316 µM, first compound 0.3 µM) was 1.23%. It also gave a viability, T/C (second compound 1 µM, first compound 0.000949 µM) of 77.1%, a viability, T/C (second compound 1 µM, first compound 0.003 µM) of 1.99% and a viability, T/C (second compound 1 µM, first compound 0.00949 µM) of 1.31%. The viability, T/C (second compound 1 µM, first compound 0.03 µM) was 1.22%, the viability, T/C (second compound 1 µM, first compound 0.0949 µM) was 1.16% and the viability, T/C (second compound 1 µM, first compound 0.3 µM) was 1.16%. For the same molecule, the viability, T/C (second compound 3.16 µM, first compound 0.000949 µM) was 82.2%, the viability, T/C (second compound 3.16 µM, first compound 0.003 µM) was 2.82% and the viability, T/C (second compound 3.16 µM, first compound 0.00949 µM) was 1.66%. It also gave a viability, T/C (second compound 3.16 µM, first compound 0.03 µM) of 1.34%, a viability, T/C (second compound 3.16 µM, first compound 0.0949 µM) of 1.54% and a viability, T/C (second compound 3.16 µM, first compound 0.3 µM) of 1.55%. For the same molecule, the viability, T/C (second compound 10 µM, first compound 0.000949 µM) was 75.1%, the viability, T/C (second compound 10 µM, first compound 0.003 µM) was 1.37% and the viability, T/C (second compound 10 µM, first compound 0.00949 µM) was 1.04%. For the same molecule, the viability, T/C (second compound 10 µM, first compound 0.03 µM) was 0.91%, the viability, T/C (second compound 10 µM, first compound 0.0949 µM) was 0.84% and the viability, T/C (second compound 10 µM, first compound 0.3 µM) was 0.55%.
`CC(=O)OC12COC1CC(O)C1(C)C(=O)C(O)C3=C(C)C(OC(=O)C(O)C(NC(=O)OC(C)(C)C)c4ccccc4)CC(O)(C(OC(=O)c4ccccc4)C21)C3(C)C` (stereo unspecified) + C#Cc1c(F)ccc2cc(O)cc(-c3ncc4c(N5CC6CCC(C5)N6)nc(OCC56CCCN5CC(F)C6)nc4c3F)c12 was tested, and the IC50 (second compound 0.0316 µM) was < 31.6 nM, the IC50 (second compound 0.1 µM) was < 31.6 nM and the IC50 (second compound 0.316 µM) was < 31.6 nM. For the same molecule, the IC50 (second compound 1 µM) was < 31.6 nM, the IC50 (second compound 3.16 µM) was < 31.6 nM and the IC50 (second compound 10 µM) was < 31.6 nM. It also gave a viability, T/C (second compound 0.0316 µM, first compound 0.0316 µM) of 9.75%, a viability, T/C (second compound 0.0316 µM, first compound 0.1 µM) of 17.9% and a viability, T/C (second compound 0.0316 µM, first compound 0.316 µM) of 20.4%. The viability, T/C (second compound 0.0316 µM, first compound 1 µM) was 25.6%, the viability, T/C (second compound 0.0316 µM, first compound 3.16 µM) was 50.5% and the viability, T/C (second compound 0.0316 µM, first compound 10 µM) was 69.9%. The viability, T/C (second compound 0.1 µM, first compound 0.0316 µM) was 10.9%, the viability, T/C (second compound 0.1 µM, first compound 0.1 µM) was 17.9% and the viability, T/C (second compound 0.1 µM, first compound 0.316 µM) was 19.7%. It also gave a viability, T/C (second compound 0.1 µM, first compound 1 µM) of 24.3%, a viability, T/C (second compound 0.1 µM, first compound 3.16 µM) of 36.3% and a viability, T/C (second compound 0.1 µM, first compound 10 µM) of 70.3%. It also gave a viability, T/C (second compound 0.316 µM, first compound 0.0316 µM) of 10.4%, a viability, T/C (second compound 0.316 µM, first compound 0.1 µM) of 19.1% and a viability, T/C (second compound 0.316 µM, first compound 0.316 µM) of 19.3%. For the same molecule, the viability, T/C (second compound 0.316 µM, first compound 1 µM) was 26%, the viability, T/C (second compound 0.316 µM, first compound 3.16 µM) was 49.9% and the viability, T/C (second compound 0.316 µM, first compound 10 µM) was 68.4%. The viability, T/C (second compound 1 µM, first compound 0.0316 µM) was 9.72%, the viability, T/C (second compound 1 µM, first compound 0.1 µM) was 18.3% and the viability, T/C (second compound 1 µM, first compound 0.316 µM) was 21.2%. For the same molecule, the viability, T/C (second compound 1 µM, first compound 1 µM) was 31.8%, the viability, T/C (second compound 1 µM, first compound 3.16 µM) was 44.9% and the viability, T/C (second compound 1 µM, first compound 10 µM) was 71.8%. The viability, T/C (second compound 3.16 µM, first compound 0.0316 µM) was 10.6%, the viability, T/C (second compound 3.16 µM, first compound 0.1 µM) was 20.9% and the viability, T/C (second compound 3.16 µM, first compound 0.316 µM) was 25%. For the same molecule, the viability, T/C (second compound 3.16 µM, first compound 1 µM) was 31.7%, the viability, T/C (second compound 3.16 µM, first compound 3.16 µM) was 44.6% and the viability, T/C (second compound 3.16 µM, first compound 10 µM) was 83.2%. For the same molecule, the viability, T/C (second compound 10 µM, first compound 0.0316 µM) was 10.5%, the viability, T/C (second compound 10 µM, first compound 0.1 µM) was 16.6% and the viability, T/C (second compound 10 µM, first compound 0.316 µM) was 17.8%. It also gave a viability, T/C (second compound 10 µM, first compound 1 µM) of 27.1%, a viability, T/C (second compound 10 µM, first compound 3.16 µM) of 42.6% and a viability, T/C (second compound 10 µM, first compound 10 µM) of 53.9%.
